melting point: 92 to 94 °C
SMILES: C=CC(=O)OCCN(CCOC(=O)C=C)c1ccc(N=Nc2snc(C)c2C#N)c(NC(C)=O)c1 [Example 5, Acrylic acid 2-[{3-acetylamino-4-(4-cyano-3-methylisothiazol-5-ylazo)-phenyl}-{2-acryloyloxyethyl}-amino]-ethyl ester]

Source: patent publication US20140084216A1 (Merck Patent GmbH, priority 2011, published 2014)
